# Measured values as given in USRE38132E1, “Phenylpyrrolidines, phenylimidazolidines,3-phenyl-1,3-oxizolidines and 3-phenyl-1,3-thiazolidines and their use in the treatment of inflammatory disease” (Boehringer Ingelheim Pharmaceuticals, Inc., priority 1997, dated 2003).
# Where two headings read alike, the source gives them in different places.
# Assays:
# [1] = target: T1, interaction of ICAM-1 with the Leukointegrin CD18/CD11a (LFA-1) (Homo sapiens, UniProt P05107+P20701); test: Assay to determine inhibition of LFA-1 binding to ICAM-1 (immunopurified LFA-1 on plate-bound sICAM-1, ELISA readout)
# T1 construct: endogenous in cells; sICAM-1: made in house, secreted from transfected CHO DUX cells
# T1 sequence (P20701 26-1170): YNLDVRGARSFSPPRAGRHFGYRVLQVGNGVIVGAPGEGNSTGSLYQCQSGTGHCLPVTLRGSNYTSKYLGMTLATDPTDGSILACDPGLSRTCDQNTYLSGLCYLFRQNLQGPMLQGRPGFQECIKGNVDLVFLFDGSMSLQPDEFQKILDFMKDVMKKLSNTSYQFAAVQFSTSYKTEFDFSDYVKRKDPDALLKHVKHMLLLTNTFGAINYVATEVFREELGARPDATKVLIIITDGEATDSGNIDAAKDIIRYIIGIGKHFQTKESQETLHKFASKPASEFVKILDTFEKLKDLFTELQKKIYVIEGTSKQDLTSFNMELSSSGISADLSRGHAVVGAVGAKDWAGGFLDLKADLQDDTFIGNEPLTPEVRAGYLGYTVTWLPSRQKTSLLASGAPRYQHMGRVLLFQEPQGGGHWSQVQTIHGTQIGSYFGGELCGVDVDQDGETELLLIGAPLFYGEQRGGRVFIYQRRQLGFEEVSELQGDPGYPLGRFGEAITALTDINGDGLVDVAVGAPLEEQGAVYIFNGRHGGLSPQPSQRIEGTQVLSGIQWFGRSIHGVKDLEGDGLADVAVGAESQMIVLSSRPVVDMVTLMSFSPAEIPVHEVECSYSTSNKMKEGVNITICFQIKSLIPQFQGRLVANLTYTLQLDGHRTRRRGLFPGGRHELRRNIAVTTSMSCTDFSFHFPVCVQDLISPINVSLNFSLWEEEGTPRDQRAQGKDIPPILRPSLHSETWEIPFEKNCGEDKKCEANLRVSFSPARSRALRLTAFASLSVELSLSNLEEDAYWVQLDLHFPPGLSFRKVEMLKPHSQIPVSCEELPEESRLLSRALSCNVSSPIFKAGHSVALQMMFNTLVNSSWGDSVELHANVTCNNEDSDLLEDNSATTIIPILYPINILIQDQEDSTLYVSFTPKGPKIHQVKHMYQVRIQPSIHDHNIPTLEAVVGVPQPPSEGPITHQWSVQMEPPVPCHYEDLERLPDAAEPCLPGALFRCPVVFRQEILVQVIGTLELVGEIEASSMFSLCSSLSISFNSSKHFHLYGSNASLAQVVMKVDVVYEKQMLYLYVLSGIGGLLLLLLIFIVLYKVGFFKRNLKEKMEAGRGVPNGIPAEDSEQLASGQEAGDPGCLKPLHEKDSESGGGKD
# T1 sequence (P05107 23-769): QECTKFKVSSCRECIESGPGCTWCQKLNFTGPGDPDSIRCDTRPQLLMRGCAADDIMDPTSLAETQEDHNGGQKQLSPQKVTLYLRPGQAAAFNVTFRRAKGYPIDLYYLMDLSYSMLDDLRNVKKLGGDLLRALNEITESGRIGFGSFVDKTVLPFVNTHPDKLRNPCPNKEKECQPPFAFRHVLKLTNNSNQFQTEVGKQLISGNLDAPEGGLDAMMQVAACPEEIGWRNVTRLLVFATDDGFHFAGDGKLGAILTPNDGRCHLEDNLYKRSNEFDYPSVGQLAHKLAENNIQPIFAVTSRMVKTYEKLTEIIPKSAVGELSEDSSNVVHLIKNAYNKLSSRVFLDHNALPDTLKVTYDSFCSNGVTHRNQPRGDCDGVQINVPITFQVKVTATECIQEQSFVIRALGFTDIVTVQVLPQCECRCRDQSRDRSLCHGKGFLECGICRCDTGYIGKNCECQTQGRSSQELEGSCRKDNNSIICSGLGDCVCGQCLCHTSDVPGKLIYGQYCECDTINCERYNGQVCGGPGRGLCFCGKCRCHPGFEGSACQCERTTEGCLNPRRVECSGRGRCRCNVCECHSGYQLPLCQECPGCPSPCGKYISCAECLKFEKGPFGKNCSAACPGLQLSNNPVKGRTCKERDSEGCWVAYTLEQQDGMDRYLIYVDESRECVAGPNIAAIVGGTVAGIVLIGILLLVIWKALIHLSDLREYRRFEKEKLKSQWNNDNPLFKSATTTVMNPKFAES
# [2] = tested on: LFA-1 dependent aggregation of JY cells; test: JY cell homotypic aggregation assay (PMA-stimulated); format: cell-based, human
# Method in brief: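 Homotypic aggregation of EBV-transformed JY cells, stimulated by phorbol myristate acetate ([…]), scored visually over time in compound presence at 2·10^5 cells/well in serum-supplemented RPMI 1640. Result given as μM concentration or range inhibiting binding by 50%.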
# [3] = tested on: cell bound fibronectin receptor (VLA4) with fibronectin, SKW3 cells; test: Inhibition of SKW3 cell binding to fibronectin (selectivity counter-assay); format: cell-based, human; details: for IC50: read-out: Assay to Detect SKW3 Cells Binding to FIBRONECTIN IC50
# Method in brief: (§1)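 Compound-treated, PMA-stimulated human T-cell line SKW3 (50 μg/mL PMA final) allowed to adhere for 2 h at 37° C to wells coated with sICAM-1 at 40 μg/mL or fibronectin at 100 μg/mL. After gentle RPMI wash, 50% inhibition concentration or range reported in μM.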
# [4] = tested on: cell bound form of LFA-1 (CD18, CD11a) with ICAM-1, SKW3 cells; test: Inhibition of SKW3 cell binding to ICAM-1 (PMA-stimulated); format: cell-based, human; details: Homo sapiens, read-out: Assay to Detect SKW3 Cells Binding to ICAM IC50
# Method in brief: as §1
# [5] = tested on: human MLR, peripheral blood mononuclear cells; test: Inhibition of the mixed lymphocyte reaction (MLR), tritiated thymidine uptake; format: cell-based; design: key: Data are reported as “+” or “−” at a given concentration (in μM); Data are reported as “+” or “−” at a given concentration (in μM)
# Procedure: Assay to Determine Inhibition the Mixed Lymphocyte Reaction
# As discussed above, ICAM-1 is necessary for effective cellular interactions during an immune response mediated through LFA-1-dependent cell adhesion. When lymphocytes from two unrelated individuals are cultured together, blast transformation and cell proliferation of the lymphocytes are observed. This response is known as a mixed lymphocyte reaction (MLR) and is analogous to the response of lymphocytes to the 10 addition of antigens or mitogens (Immunology: The Science of Self-Nonself Discrimination; Klein, J., Ed.; John Wiley & Sons: NY, 1982, pp 453-458).
# This assay protocol is used to determine the effect of a test compound on the human MLR.
# Description of Assay Protocol:
# Peripheral blood is obtained from normal, healthy donors by venipuncture. The blood is collected in heparinized tubes and diluted 1:1 at room temperature with Puck's G (GIBCO) balanced salt solution (BSS). The blood mixture (20 mL) is layered over 15 mL of a Ficoll/Hypaque density gradient (Pharmacia, density=1.078, room temperature) and centrifuged at 1000·g for 20 minutes. The interface is then collected and washed 3 times in Puck's G. The cells are counted on a hemocytometer and resuspended in RPMI 1640 culture medium (GIBCO) containing 0.5% of gentamicin, 1 mM L-glutamine (GICO) and 5% heat inactivated (56° C., 30 min) human AB sera (Flow Laboratories) (hereafter referred to as RPMI-culture medium).
# Stimulator cells (cells that have been treated with irradiation so that they are unable to proliferate) from a separate donor are cultured with the responder cells at the same concentration. Test compound is added to wells at various concentrations. The total volume per culture is 0.2 mL. Controls include compound vehicle alone (DMSO), responder cells alone, and stimulator cells alone. The culture plates are incubated at 37° C. in a 5% CO2-humidified air atmosphere for 5 days.
# The wells are pulsed with 0.5 μCi of tritiated thymidine (^3HT) (New England Nuclear) for the last 18 h of culture. In some cases a two-way MLR can be performed. The protocol is the same except that the second donor's cells are not inactivated by irradiation.
# The cells are harvested onto glass fiber filters using an automated multiple sample harvester (Skatron, Norway), and rinsed with water and methanol. The filters are oven dried and counted in Aquasol in a Beckman (LS-3801) liquid scintillation counter.
# Data are reported as “+” or “−” at a given concentration (in μM).
# [6] = values marked e approximated from incomplete dose-response curve
# [7] = values marked c: no inhibition observed up to highest dose
# [8] = SKW3, values marked c: no inhibition observed up to highest dose
# [9] = No inh = no inhibition observed up to highest dose, exact quantification not always possible due to intrinsic toxicity
"Kd [1, 6]",melting point,SMILES,IC50 ([2]; Homo sapiens),Cellular Toxicity Assay MTT LD50 (SKW3 cells),"IC50 [4, 8]",Mixed Lymphocyte Reaction MLR +/− ([5]; at 25 μM),also measured
~17000 nM,> 240 °C,Cc1cc(C)cc(CC2(C)NC(=O)N(c3cc(Cl)cc(Cl)c3)C2=O)c1 (stereo not drawn) [Example 50],–,–,–,–,–
200 nM,150 to 151 °C,CC1(Cc2ccc(Cl)c(Cl)c2)NC(=O)N(c2cc(Cl)cc(Cl)c2)C1=O (stereo not drawn) [Example 55],–,–,–,–,–
330 nM,173 to 174 °C,CC1(Cc2ccc3c(Cl)cc(C(F)(F)F)nc3c2)NC(=O)N(c2cc(Cl)cc(Cl)c2)C1=O (stereo not drawn) [Example 59],–,–,–,–,–
160 nM,67 to 69 °C,CC1(Cc2ccc(C(F)(F)F)c(F)c2)NC(=O)N(c2cc(Cl)cc(Cl)c2)C1=O (stereo not drawn) [Example 62],–,–,–,–,–
~70000 nM,168 to 170 °C,CC1(Cc2ccc(F)c(C(F)(F)F)c2)NC(=O)N(c2cc(Cl)cc(Cl)c2)C1=O (stereo not drawn) [Example 69],–,–,–,–,–
2850 nM,153 to 155 °C,CC1(Cc2ccccc2OC(F)(F)F)NC(=O)N(c2cc(Cl)cc(Cl)c2)C1=O (stereo not drawn) [Example 66],–,–,–,–,–
–,–,C[C@@]1(Cc2ccc(Br)cc2)C(=O)N(c2cc(Cl)cc(Cl)c2)C(=O)N1CCCC(=O)O [Example 227],3100 nM,200 to 400 µM,–,–,"Kd [1]: 180 nM; Assay to Detect SKW3 Cells Binding to FIBRONECTIN IC50 [3, 9]: No inh^c; IC50 ([4]; SKW3): 25 µM; Mixed Lymphocyte Reaction MLR +/− ([5]; at 50 μM): +(50)"
1320 nM,170 to 171 °C,CC1(Cc2cccc(SC(F)(F)F)c2)NC(=O)N(c2cc(Cl)cc(Cl)c2)C1=O (stereo not drawn) [Example 65],–,–,–,–,–
420 nM,117 to 118 °C,CC1(Cc2ccc(F)c(F)c2)NC(=O)N(c2cc(Cl)cc(Cl)c2)C1=O (stereo not drawn) [Example 54],–,–,–,–,–
–,–,C[C@@]1(Cc2ccc(Br)cc2)C(=O)N(c2cc(Cl)cc(Cl)c2)C(=O)N1Cc1cccc(C(=O)O)c1 [Example 229],3100 nM,50 to 100 µM,–,–,"Kd [1]: 300 nM; Assay to Detect SKW3 Cells Binding to FIBRONECTIN IC50 [3, 9]: No inh^c; IC50 ([4]; SKW3): 6 to 13 µM; Mixed Lymphocyte Reaction MLR +/− ([5]; at 50 μM): +(50)"
230 nM,133 to 134 °C,CC1(Cc2ccc(SC(F)(F)F)cc2)NC(=O)N(c2cc(Cl)cc(Cl)c2)C1=O (stereo not drawn) [Example 60],–,–,–,–,–
1450 nM,55 to 56 °C,CC1(Cc2ccc(Cl)s2)NC(=O)N(c2cc(Cl)cc(Cl)c2)C1=O (stereo not drawn) [Example 64],–,–,–,–,–
3540 nM,163 to 164 °C,CC1(Cc2ccc(C(F)(F)F)c(F)c2F)NC(=O)N(c2cc(Cl)cc(Cl)c2)C1=O (stereo not drawn) [Example 67],–,–,–,–,–
260 nM,61 to 63 °C,CC1(Cc2ccc(-c3ccccc3)cc2)NC(=O)N(c2cc(Cl)cc(Cl)c2)C1=O (stereo not drawn) [Example 49],–,–,–,–,–
–,–,C[C@@]1(Cc2ccc(Br)cc2)C(=O)N(c2cc(Cl)cc(Cl)c2)C(=O)N1CCCCCC(=O)O [Example 226],1600 nM,100 µM,–,+(25),"Kd [1]: 70 nM; Assay to Detect SKW3 Cells Binding to FIBRONECTIN IC50 [3, 9]: No inh^c; IC50 ([4]; SKW3): 3 to 6 µM"
–,–,C[C@]1(Cc2ccc(C(=O)c3ccccc3)cc2)NC(=O)N(c2cc(Cl)cc(Cl)c2)C1=O [Example 215],–,100 to 200 µM,–,–,"Kd [1]: 200 nM; IC50 [2]: 3100 nM; IC50 ([3]; Homo sapiens, SKW3, No inh = no inhibition observed up to highest dose, exact quantification not always possible due to intrinsic toxicity): > 100 µM; IC50 ([4]; SKW3): 50 to 100 µM; Mixed Lymphocyte Reaction MLR +/− ([5]; at 50 μM): +(50)"
–,–,C[C@@]1(Cc2ccc(Br)cc2)C(=O)N(c2cc(Cl)cc(Cl)c2)C(=O)N1CCO [Example 225],200 nM,50 to 100 µM,–,+(25),"Kd [1]: 630 nM; Assay to Detect SKW3 Cells Binding to FIBRONECTIN IC50 [3, 9]: No inh^c; IC50 ([4]; SKW3): 3 to 4 µM"
–,–,CCCN1C(=O)N(c2cc(Cl)cc(Cl)c2)C(=O)[C@]1(C)Cc1ccc(Br)cc1 [Example 276],500 nM,375 µM,–,+(25),"Kd [1]: 1110 nM; Assay to Detect SKW3 Cells Binding to FIBRONECTIN IC50 [3, 9]: No inh^c; IC50 ([4]; SKW3): 10 µM"

SMILES,"Kd [1, 6]",melting point,IC50 ([2]; Homo sapiens),Cellular Toxicity Assay MTT LD50 (SKW3 cells),"IC50 [4, 8]",Mixed Lymphocyte Reaction MLR +/− ([5]; at 25 μM),also measured
CN1C(=O)N(c2cc(Cl)cc(Cl)c2)C(=O)C1(C)Cc1ccc(C#N)cc1 (stereo not drawn) [Example 151],46 nM,–,200 nM,>410 µM,5 to 10 µM,+(25),"Assay to Detect SKW3 Cells Binding to FIBRONECTIN IC50 [3, 7]: No inh^c"
CC1(Cc2ccc(Br)cc2)C(=O)N(c2cc(Cl)cc(Cl)c2)C(=O)N1C1CC1 (stereo not drawn) [Example 169],50 nM,–,1500 nM,160 to 230 µM,12 to 25 µM,+(25),"Assay to Detect SKW3 Cells Binding to FIBRONECTIN IC50 [3, 7]: No inh^c"
CN1C(=O)N(c2cc(Cl)cc(Cl)c2)C(=O)C1(C)Cc1ccc(F)cc1 (stereo not drawn) [Example 146],130 nM,–,400 nM,100 µM,13 to 25 µM,–,"Assay to Detect SKW3 Cells Binding to FIBRONECTIN IC50 [3, 7]: No inh^c; Mixed Lymphocyte Reaction MLR +/− ([5]; at 50 μM): +(50)"
CN1C(=O)N(c2cc(Cl)cc(Cl)c2)C(=O)C1(C)Cc1ccc([N+](=O)[O-])cc1 (stereo not drawn) [Example 157],37 nM,–,400 nM,>390 µM,5 to 10 µM,+(25),"Assay to Detect SKW3 Cells Binding to FIBRONECTIN IC50 [3, 7]: No inh^c"
C[C@H]1C(=O)N(c2cc(Cl)cc(Cl)c2)C(=O)[C@]1(C)Cc1ccc(Br)cc1 [Example 72],60 nM,–,1400 nM,>363 µM,20 to 40 µM,+(25),"Assay to Detect SKW3 Cells Binding to FIBRONECTIN IC50 [3, 7]: No inh^c"
CN1C(=O)N(c2cc(C(F)(F)F)cc(C(F)(F)F)c2)C(=O)C1(C)Cc1ccccc1 (stereo not drawn) [Example 83],300 nM,–,6000 nM,250 to 500 µM,13 to 25 µM,–,"IC50 [3, 7]: > 200 µM; Mixed Lymphocyte Reaction MLR +/− ([5]; at 50 μM): +(50)"
CN1C(=O)N(c2cc(Cl)cc(Cl)c2)C(=O)C1Cc1ccc(Br)cc1 (stereo not drawn) [Example 92],120 nM,–,3100 nM,63 to 125 µM,13 to 25 µM,+(25),"Assay to Detect SKW3 Cells Binding to FIBRONECTIN IC50 [3, 7]: No inh^c"
CCCN1C(=O)N(c2cc(Cl)cc(Cl)c2)C(=O)[C@@]1(C)Cc1ccc(Br)cc1 [Example 98],55 nM,–,3000 nM,>340 µM,5 to 10 µM,–,"Assay to Detect SKW3 Cells Binding to FIBRONECTIN IC50 [3, 7]: No inh^c; Mixed Lymphocyte Reaction MLR +/− ([5]; at 50 μM): +(50)"
CN1C(=O)N(c2cc(Cl)cc(Cl)c2)C(=O)[C@@]1(C)Cc1ccc(-c2ccccc2)cc1 [Example 182],50 nM,–,20 nM,200 to 400 µM,3 to 6 µM,+(25),"Assay to Detect SKW3 Cells Binding to FIBRONECTIN IC50 [3, 7]: No inh^c"
CN1C(=O)N(c2cc(Cl)c(Cl)c(Cl)c2)C(=O)[C@@]1(C)Cc1ccc(Br)cc1 [Example 123],100 nM,–,600 nM,50 to 100 µM,12 to 25 µM,–,"IC50 ([3]; Homo sapiens, SKW3, values marked c: no inhibition observed up to highest dose): > 25 µM; Mixed Lymphocyte Reaction MLR +/− ([5]; at 50 μM): +(50)"
